The text below walks through data of ChEMBL document CHEMBL1144059, “Interference of linoleic acid fraction in some receptor binding assays” (J Nat Prod, 1999).

pIC50: −log10 of the molar value. Some results are limits rather than exact numbers.

The species entered for experiment [1] is Rattus norvegicus. Nature of the experiment: Displacement of [3H]naloxone from rat opioid receptor at 1 mM. Background: In a radioligand displacement assay an active substance lowers the binding of a labelled ligand.
For experiment [2], the target named is T1, Adenosine receptor A1 (Rattus norvegicus) (UniProt P25099).
T1 sequence (whole entry): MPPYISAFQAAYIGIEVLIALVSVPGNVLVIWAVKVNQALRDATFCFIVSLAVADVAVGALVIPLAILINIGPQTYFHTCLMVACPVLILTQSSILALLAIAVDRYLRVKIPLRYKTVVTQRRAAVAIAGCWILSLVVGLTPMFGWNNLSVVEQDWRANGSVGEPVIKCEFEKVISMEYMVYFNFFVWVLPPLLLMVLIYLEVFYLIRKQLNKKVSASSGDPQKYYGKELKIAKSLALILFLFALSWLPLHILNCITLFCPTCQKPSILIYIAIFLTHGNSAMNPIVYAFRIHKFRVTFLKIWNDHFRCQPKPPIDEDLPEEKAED
Nature of the experiment: Displacement of [3H]DPCPX from rat brain adenosine A1 receptor at 56 uM assessed per mg of protein by saturation analysis.

For experiment [3], the species on record is Bos taurus. Kind of experiment: Displacement of [3H]nitrobenzylthiosine from nucleoside transport protein in calf lung membrane at 10 uM. The experiment is classed as cell membranes.
For experiment [4], the species on record is Rattus norvegicus. Kind of experiment: Displacement of [3H]naloxone from rat opioid receptor at 10 uM.
The target in experiment [5] is T1, Adenosine receptor A1 (Rattus norvegicus). Kind of experiment: Displacement of [3H]DPCPX from rat adenosine A1 receptor at 10 uM by liquid scintillation counting.
Another experiment addresses T2, Adenosine receptor A1 (Rattus norvegicus, UniProt P25099).
T2 sequence (P25099 whole entry): T1 sequence (whole entry)
Kind of experiment: Displacement of [3H]DPCPX from rat adenosine A1 receptor by liquid scintillation counting.

Experiment [6] is filed under the species Bos taurus. Kind of experiment: Displacement of [3H]nitrobenzylthiosine from nucleoside transport protein in calf lung membrane at 1 mM. The experiment is classed as cell membranes.
The species entered for experiment [7] is Bos taurus. Nature of the experiment: Displacement of [3H]nitrobenzylthiosine from nucleoside transport protein in calf lung membrane at 0.1 mM. The format is cell membranes.
The target of experiment [8] is T1, Adenosine receptor A1 (Rattus norvegicus). Nature of the experiment: Displacement of [3H]DPCPX from rat adenosine A1 receptor at 1 mM by liquid scintillation counting.
For experiment [9] the target is unchanged. Nature of the experiment: Displacement of [3H]DPCPX from rat adenosine A1 receptor at 0.1 mM by liquid scintillation counting.
The species named for experiment [10] is Rattus norvegicus. Nature of the experiment: Displacement of [3H]naloxone from rat opioid receptor at 0.1 mM.

Broadly, the pIC50 is −log10 of the IC50, conventionally taken in molar units. Low readings indicate a high IC50, high ones a low IC50. For the compound `CCCCC/C=C\C/C=C\CCCCCCCC(=O)O` [LINOLEIC ACID], the Activity is greater than 100% in the experiment filed under Rattus norvegicus [1]; 143 fmol in experiment [2]; 100% in the experiment filed under Bos taurus [3]; 100% in the experiment filed under Rattus norvegicus [4]; 85% in experiment [5]; less than 0% in the experiment filed under Bos taurus [6]. Moreover, the Activity in the experiment filed under Bos taurus [7] was 100%; in [8], 0%; in experiment [9], 3%; in the experiment listed under Rattus norvegicus [10] it was 42%. Also, the pIC50 at Adenosine receptor A1 is 4.19.
